In patent US6329377A, “Ketomethylene group-containing cysteine and serine protease inhibitors” (Cephalon, Inc., priority 2000, dated 2001):

How the values were obtained:
Assay type in all cases: biochemical
Calpain I = biological target: T1, Calpain I (Homo sapiens, UniProt P07384); test: Rate of inactivation of calpain I (second order rate constant); details: pH 7.5, pseudo-first order conditions, read-out: Calpain Inactivation Rates
T1 construct: made in house
T1 sequence (P07384 1-714): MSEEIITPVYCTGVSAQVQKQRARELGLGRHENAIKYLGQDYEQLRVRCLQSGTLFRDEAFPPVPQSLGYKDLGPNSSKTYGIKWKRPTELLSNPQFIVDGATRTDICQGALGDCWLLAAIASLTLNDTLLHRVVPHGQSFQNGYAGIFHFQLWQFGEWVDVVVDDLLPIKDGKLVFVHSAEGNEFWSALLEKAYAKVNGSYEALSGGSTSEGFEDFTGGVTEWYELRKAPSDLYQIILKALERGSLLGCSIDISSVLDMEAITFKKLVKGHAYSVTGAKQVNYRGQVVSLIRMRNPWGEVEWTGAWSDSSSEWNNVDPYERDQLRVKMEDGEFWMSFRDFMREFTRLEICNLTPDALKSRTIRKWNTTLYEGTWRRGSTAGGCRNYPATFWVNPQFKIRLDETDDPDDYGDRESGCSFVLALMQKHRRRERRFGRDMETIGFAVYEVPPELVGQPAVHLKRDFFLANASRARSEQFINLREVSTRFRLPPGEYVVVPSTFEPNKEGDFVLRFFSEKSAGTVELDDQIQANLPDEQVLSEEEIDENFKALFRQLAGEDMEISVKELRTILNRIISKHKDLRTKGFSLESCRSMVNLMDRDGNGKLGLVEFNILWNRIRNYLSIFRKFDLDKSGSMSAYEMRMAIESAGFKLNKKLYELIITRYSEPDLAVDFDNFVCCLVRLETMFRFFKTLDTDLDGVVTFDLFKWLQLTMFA
T1 sequence (P04632 1-268 partner): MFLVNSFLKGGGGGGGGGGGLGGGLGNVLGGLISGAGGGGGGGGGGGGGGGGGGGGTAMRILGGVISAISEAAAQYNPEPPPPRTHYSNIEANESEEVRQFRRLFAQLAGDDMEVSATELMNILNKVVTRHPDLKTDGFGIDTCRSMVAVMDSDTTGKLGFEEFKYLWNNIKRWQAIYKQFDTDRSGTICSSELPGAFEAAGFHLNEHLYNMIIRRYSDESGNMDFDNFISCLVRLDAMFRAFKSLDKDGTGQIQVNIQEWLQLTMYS
Experimental: (§1) To evaluate inhibitory activity, stock solutions (40 times concentrated) of each compound to be tested were prepared in 100% anhydrous DMSO and 5 μL of each inhibitor preparation were aliquoted into each of three wells of a 96-well plate. Calpain I, prepared by a modification of the method of W. J. Lee et al. (Biochem. Internatl. 22: 163-171 (1990)), was diluted into assay buffer (i.e., 50 mM Tris, 50 mM NaCl, 1 mM EDTA, 1 mM EGTA, and 5 mM-mercaptoethanol, pH 7.5 including 0.2 mM Succ-Leu-Tyr-MNA) and 175 μL aliquoted into the same wells containing the independent inhibitor stocks as well as to positive control wells containing 5 μL DMSO, but no compound. To start the reaction, 20 μL of 50 mM CaCl2 in assay buffer was added to all wells of the plate, excepting three, which were used as background signal baseline controls. Substrate hydrolysis was monitored every 5 minutes for a total of 30 minutes using a Fluoroskan II fluorescence plate reader. Substrate hydrolysis in the absence of inhibitor was linear for up to 15 minutes.
Inhibition of calpain I activity was calculated as the percent decrease in the rate of substrate (S) hydrolysis in the presence of inhibitor (I) relative to the rate in its absence (o). Comparison between the inhibited and control rates was made within the linear range for substrate hydrolysis. For screening, compounds were tested at 10 μM. Compounds having 50% inhibition at 10 μM were considered active. […] The results were plotted as % inhibition versus log inhibitor concentration and the IC50 was calculated from linear regression of the data. Apparent second order rate constants were determined from analysis of reaction progress curves under pseudo-first order conditions. Each determination represents the means of three or more independent single cuvette analyses continually monitored via a Perkin-Elmer LS50B spectrofluorimeter. […]
where y is the product formed at time t. […] The apparent second order rate constant kapp was determined as Kobs /[I]. […]

thrombin = biological target: T2, thrombin (Homo sapiens, UniProt P00734); test: Inhibition of thrombin; details: 25 μM Bz-Phe-Val-Arg-AMC, pH 7.5, read-out: Thrombin % I @ 10 uM
T2 construct: purchased Sigma Chem. Co. T-7009
Experimental: as §1
(§2) Inhibition of calpain I activity was calculated as the percent decrease in the rate of substrate (S) hydrolysis in the presence of inhibitor (I) relative to the rate in its absence (o). Comparison between the inhibited and control rates was made within the linear range for substrate hydrolysis. For screening, compounds were tested at 10 μM. Compounds having 50% inhibition at 10 μM were considered active. The IC50s of inhibitors (concentration yielding 50% inhibition) were determined from the percent decrease in the rates of substrate hydrolysis in the presence of five to seven different concentrations of the test compound. The results were plotted as % inhibition versus log inhibitor concentration and the IC50 was calculated from linear regression of the data. Apparent second order rate constants were determined from analysis of reaction progress curves under pseudo-first order conditions. Each determination represents the means of three or more independent single cuvette analyses continually monitored via a Perkin-Elmer LS50B spectrofluorimeter. The rate of inhibition of hydrolysis was obtained by fitting the curve to the exponential equation (1):
(§3) Additionally, because α-chymotrypsin is not a calcium sensitive enzyme and is constitutively active, following addition of inhibitor stocks to the 96 well plates, 100 μl of a 2-fold concentrated stock of enzyme in dilution buffer was first added and the reaction started by addition of 100 μl of a 2-fold concentrated stock of substrate in assay buffer. Substrate hydrolysis was monitored every 5 minutes up to 30 minutes using a Fluoroskan II ([…]).
Inhibition of thrombin (Sigma Chem. Co. Cat. #T-7009) was evaluated as described for chymotrypsin except that the assay was performed in 50 mM Tris, 10 mM CaCl2, pH 7.5 and the substrate was 25 μM Bz-Phe-Val-Arg-AMC (Bachem cat#I-1080).

α-chymotrypsin = biological target: T3, α-chymotrypsin (Bos taurus, UniProt P00766); test: Inhibition of α-chymotrypsin; details: pH 7.5, 10 μM, 0.03 mM Succ-Ala-Ala-Pro-Phe-AMC, read-out: Chymotrypsin % I @
T3 construct: purchased Sigma Chem. Co. C-3142
Experimental: as §1, §2, §3

Row | kinact/KI (Calpain I) [M⁻¹ s⁻¹] | inhibition at 10 µM (thrombin) [%] | inhibition at 10 µM (α-chymotrypsin) [%] | Structure (SMILES)
1 | 5800 | 0 | 33 | CCC(C(=O)CC(CC(C)C)C(=O)NC(Cc1ccccc1)C(=O)CF)c1ccccc1 (stereo not drawn) [Compound 14a, CH3 CH2 CH(Ph)COCH2 CH(iBu)CO-Phe-CH2 F]
2 | 16800 | 0 | 82 | CC(C)CC(CC(=O)[C@H](CC(C)C)NC(=O)OCc1ccccc1)C(=O)NC(Cc1ccccc1)C(=O)CF (stereo partly drawn) [Compound 14c, Z-Leu-CH2 CH(iBu)CO-Phe-CH2 F]
3 | 75600 | 9 | 98 | CC(C)CC(CC(=O)C1c2ccccc2Oc2ccccc21)C(=O)NC(Cc1ccccc1)C(=O)CF (racemic) [Compound 14b, Xanthene-COCH2 CH(iBu)CO-Phe-CH2 F]
